{"source": "paper PMC7049616", "about": "(Acta Pharmaceutica Sinica. B, 2019)", "key": {"[1]": {"tested_on": "TEL-cKIT-BaF3", "test": "cells", "conditions": "72 h"}, "[2]": {"tested_on": "TEL-FLT3-BaF3", "test": "cells", "conditions": "72 h"}, "[3]": {"tested_on": "TEL-PDGFRa-BaF3", "test": "cells", "conditions": "72 h"}, "[4]": {"tested_on": "TEL-FGFR4-BaF3", "test": "Anti-proliferation assay", "type": "cell-based", "conditions": "72 h"}, "[5]": {"tested_on": "TEL-PDGFRb-BaF3", "test": "cells", "conditions": "72 h"}, "[6]": {"tested_on": "TEL-BMX-BaF3", "test": "Anti-proliferation assay", "type": "cell-based", "conditions": "72 h"}, "[7]": {"tested_on": "BaF3", "test": "Anti-proliferation assay", "type": "cell-based", "conditions": "Mus musculus, BaF3, 72 h"}, "[8]": {"tested_on": "HUVEC cells", "conditions": "after 12 h"}, "[9]": {"tested_on": "TEL-RET-BaF3", "test": "cells", "conditions": "72 h"}, "[10]": {"tested_on": "TEL-FGFR1-BaF3", "test": "cells", "conditions": "72 h"}, "[11]": {"test": "Pharmacokinetics study", "type": "in vivo, Sprague–Dawley rats", "conditions": "male, Sprague-Dawley, rat, plasma"}, "[12]": {"tested_on": "TEL-FGFR3-BaF3", "test": "Anti-proliferation assay", "type": "cell-based", "conditions": "72 h"}, "[13]": {"tested_on": "TEL-CSF1R-BaF3", "test": "Anti-proliferation assay", "type": "cell-based", "conditions": "72 h"}, "[14]": {"tested_on": "TEL-VEGFR1-BaF3", "test": "Anti-proliferation assay", "type": "cell-based", "conditions": "72 h"}, "[15]": {"tested_on": "TEL-EPHA1-BaF3", "test": "Anti-proliferation assay", "type": "cell-based", "conditions": "72 h"}, "[16]": {"tested_on": "TEL-EPHA2-BaF3", "test": "Anti-proliferation assay", "type": "cell-based", "conditions": "72 h"}, "[17]": {"tested_on": "TEL-VEGFR3-BaF3", "test": "Anti-proliferation assay", "type": "cell-based", "conditions": "72 h"}, "[18]": {"tested_on": "TEL-FGFR2-BaF3", "test": "Anti-proliferation assay", "type": "cell-based", "conditions": "72 h"}, "[19]": {"tested_on": "P210-BaF3", "test": "Anti-proliferation assay", "type": "cell-based", "conditions": "72 h"}, "[20]": {"test": "Acute toxicity study, single oral dose, 7 days observation", "type": "in vivo, ICR mice", "conditions": "for toxicity observation in acute toxicity study: ICR mice; for Number of deaths (death/total): female ICR mice, 7 days"}}}
{"compound": "CCN(CC)CCNC(=O)c1c(C)[nH]c(/C=C2\\C(=O)Nc3ccc(F)cc32)c1C", "note": "[Sunitinib]", "values": [{"measurement": "GI50", "setting": "[1]", "result": 81, "unit": "nM"}, {"measurement": "GI50", "setting": "[2]", "result": 32, "unit": "nM"}, {"measurement": "GI50", "setting": "[3]", "result": 1, "unit": "nM"}, {"measurement": "GI50", "setting": "[4]", "result": 2820, "unit": "nM"}, {"measurement": "GI50", "setting": "[5]", "result": "< 1", "unit": "nM"}, {"measurement": "GI50", "setting": "[6]", "result": 3020, "unit": "nM"}, {"measurement": "GI50", "setting": "[7]", "result": 2560, "unit": "nM"}, {"measurement": "HUVEC migration in wound-healing assay", "setting": "[8]", "result": "less migrated HUVEC cells"}, {"measurement": "GI50", "setting": "[9]", "result": 110, "unit": "nM"}, {"measurement": "GI50", "setting": "[10]", "result": 1680, "unit": "nM"}, {"measurement": "AUC(0-inf)", "setting": "[11]; iv, 1 mg/kg", "result": "145 ± 39.6", "unit": "ng·h/mL"}, {"measurement": "AUC(0-t)", "setting": "[11]; iv, 1 mg/kg", "result": "143 ± 40.3", "unit": "ng·h/mL"}, {"measurement": "Cmax", "setting": "[11]; iv, 1 mg/kg", "result": "236 ± 66.8", "unit": "ng/mL"}, {"measurement": "MRT last", "setting": "[11]; iv, 1 mg/kg", "result": "0.98 ± 0.04", "unit": "h"}, {"measurement": "Tmax", "setting": "[11]; iv, 1 mg/kg", "result": 0.33, "unit": "h"}, {"measurement": "half-life", "setting": "[11]; iv, 1 mg/kg", "result": "1.05 ± 0.34", "unit": "h"}, {"measurement": "bioavailability", "setting": "[11]; oral, 10 mg/kg", "result": 75.7, "unit": "%"}, {"measurement": "AUC(0-inf)", "setting": "[11]; po, 10 mg/kg", "result": "1100 ± 96.7", "unit": "ng·h/mL"}, {"measurement": "AUC(0-t)", "setting": "[11]; po, 10 mg/kg", "result": "927 ± 108", "unit": "ng·h/mL"}, {"measurement": "Cmax", "setting": "[11]; po, 10 mg/kg", "result": "175 ± 21.7", "unit": "ng/mL"}, {"measurement": "MRT last", "setting": "[11]; po, 10 mg/kg", "result": "7.63 ± 0.3", "unit": "h"}, {"measurement": "Tmax", "setting": "[11]; po, 10 mg/kg", "result": "1.25 ± 1.06", "unit": "h"}, {"measurement": "half-life", "setting": "[11]; po, 10 mg/kg", "result": "1.38 ± 0.46", "unit": "h"}, {"measurement": "GI50", "setting": "[12]", "result": 370, "unit": "nM"}, {"measurement": "GI50", "setting": "[13]", "result": 11, "unit": "nM"}, {"measurement": "GI50", "setting": "[14]", "result": 350, "unit": "nM"}, {"measurement": "GI50", "setting": "[15]", "result": 3210, "unit": "nM"}, {"measurement": "GI50", "setting": "[16]", "result": 1270, "unit": "nM"}, {"measurement": "GI50", "setting": "[17]", "result": 570, "unit": "nM"}, {"measurement": "GI50", "setting": "[18]", "result": 4, "unit": "nM"}, {"measurement": "GI50", "setting": "[19]", "result": 1460, "unit": "nM"}, {"measurement": "toxicity observation in acute toxicity study", "setting": "[20]; single dose 500 mg/kg, recovered starting from day 4", "result": "apparent body weight loss"}, {"measurement": "toxicity observation in acute toxicity study", "setting": "[20]; single dose 1000 mg/kg", "result": "unrecovered body weight loss"}, {"measurement": "toxicity observation in acute toxicity study", "setting": "[20]; single dose 2000 mg/kg", "result": "mice death on day 3"}, {"measurement": "Number of deaths (death/total)", "setting": "[20]; single oral dose 125 mg/kg", "result": "♀: 0/2"}, {"measurement": "Number of deaths (death/total)", "setting": "[20]; single oral dose 250 mg/kg", "result": "♀: 0/2"}, {"measurement": "Number of deaths (death/total)", "setting": "[20]; single oral dose 500 mg/kg", "result": "♀: 0/2"}, {"measurement": "Number of deaths (death/total)", "setting": "[20]; single oral dose 1000 mg/kg", "result": "♀: 0/2"}, {"measurement": "Number of deaths (death/total)", "setting": "[20]; single oral dose 2000 mg/kg", "result": "♀: 2/2"}]}
